Measured values reported in patent publication US20240190854A1, “PYRIMIDINE OR PYRIDINE DERIVATIVES USEFUL AS HCN2 MODULATORS” (King's College London, priority 2021, published 2024).
Structures can show the parent of a compound that is named as a salt.

Key:
HCN2 = HCN2 (Homo sapiens (Human), UniProt Q9UL51); test: HCN2 current assay using PatchXpress 7000A; format: cell-based; conditions: PatchXpress protocol; read-out: PX HCN2 IC50
Method: (§1) Example 126A, Using PatchXpress 7000A
(§2) Solutions for recording HCN currents were:
The membrane voltage was then stepped back to −30 mV for a further 8 seconds.
(§3) The peak inward current measured at the end of the pulse to −110 mV (HCN1 and HCN2) or −130 mV (HCN4) was measured and any leak current subtracted to calculate the HCN current. The HCN current amplitude was measured after each control or compound addition and normalized to the control amplitude (Control A).
(§4) All experiments were performed at room temperature (approximately 22° C.).
(§5) Each test compound concentration was applied to the cell for seven (7) minutes, at which point the next cumulative concentration was applied.

HCN4 = HCN4 (Homo sapiens (Human), UniProt Q9Y3Q4); test: HCN4 current assay using PatchXpress 7000A; format: cell-based; conditions: PatchXpress protocol; read-out: PX HCN4 IC50
Method: as §1, §2, §3, §4, §5

hERG channel = hERG channel (Homo sapiens (Human), UniProt Q12809); test: hERG assay using IonWorks Quattro; format: cell-based; conditions: IonWorks protocol; read-out: IW hERG IC50
Method: Example 127A, Using IonWorks Quattro
Solutions for recording hERG currents were:
This was followed by a […] step of is to −30 mV to evoke the hERG tail current. This sequence was repeated 5 times at a frequency of 0.25 Hz (see FIG. 3). Currents were measured from the tail step at the 5th pulse and referenced to the holding current. Compounds were then incubated for 6-7 minutes prior to a second measurement of the hERG signal using an identical pulse train.

hNav1.5 = hNav1.5 (Homo sapiens (Human), UniProt Q14524)
Sequence of hNav1.5 (Q14524 whole entry): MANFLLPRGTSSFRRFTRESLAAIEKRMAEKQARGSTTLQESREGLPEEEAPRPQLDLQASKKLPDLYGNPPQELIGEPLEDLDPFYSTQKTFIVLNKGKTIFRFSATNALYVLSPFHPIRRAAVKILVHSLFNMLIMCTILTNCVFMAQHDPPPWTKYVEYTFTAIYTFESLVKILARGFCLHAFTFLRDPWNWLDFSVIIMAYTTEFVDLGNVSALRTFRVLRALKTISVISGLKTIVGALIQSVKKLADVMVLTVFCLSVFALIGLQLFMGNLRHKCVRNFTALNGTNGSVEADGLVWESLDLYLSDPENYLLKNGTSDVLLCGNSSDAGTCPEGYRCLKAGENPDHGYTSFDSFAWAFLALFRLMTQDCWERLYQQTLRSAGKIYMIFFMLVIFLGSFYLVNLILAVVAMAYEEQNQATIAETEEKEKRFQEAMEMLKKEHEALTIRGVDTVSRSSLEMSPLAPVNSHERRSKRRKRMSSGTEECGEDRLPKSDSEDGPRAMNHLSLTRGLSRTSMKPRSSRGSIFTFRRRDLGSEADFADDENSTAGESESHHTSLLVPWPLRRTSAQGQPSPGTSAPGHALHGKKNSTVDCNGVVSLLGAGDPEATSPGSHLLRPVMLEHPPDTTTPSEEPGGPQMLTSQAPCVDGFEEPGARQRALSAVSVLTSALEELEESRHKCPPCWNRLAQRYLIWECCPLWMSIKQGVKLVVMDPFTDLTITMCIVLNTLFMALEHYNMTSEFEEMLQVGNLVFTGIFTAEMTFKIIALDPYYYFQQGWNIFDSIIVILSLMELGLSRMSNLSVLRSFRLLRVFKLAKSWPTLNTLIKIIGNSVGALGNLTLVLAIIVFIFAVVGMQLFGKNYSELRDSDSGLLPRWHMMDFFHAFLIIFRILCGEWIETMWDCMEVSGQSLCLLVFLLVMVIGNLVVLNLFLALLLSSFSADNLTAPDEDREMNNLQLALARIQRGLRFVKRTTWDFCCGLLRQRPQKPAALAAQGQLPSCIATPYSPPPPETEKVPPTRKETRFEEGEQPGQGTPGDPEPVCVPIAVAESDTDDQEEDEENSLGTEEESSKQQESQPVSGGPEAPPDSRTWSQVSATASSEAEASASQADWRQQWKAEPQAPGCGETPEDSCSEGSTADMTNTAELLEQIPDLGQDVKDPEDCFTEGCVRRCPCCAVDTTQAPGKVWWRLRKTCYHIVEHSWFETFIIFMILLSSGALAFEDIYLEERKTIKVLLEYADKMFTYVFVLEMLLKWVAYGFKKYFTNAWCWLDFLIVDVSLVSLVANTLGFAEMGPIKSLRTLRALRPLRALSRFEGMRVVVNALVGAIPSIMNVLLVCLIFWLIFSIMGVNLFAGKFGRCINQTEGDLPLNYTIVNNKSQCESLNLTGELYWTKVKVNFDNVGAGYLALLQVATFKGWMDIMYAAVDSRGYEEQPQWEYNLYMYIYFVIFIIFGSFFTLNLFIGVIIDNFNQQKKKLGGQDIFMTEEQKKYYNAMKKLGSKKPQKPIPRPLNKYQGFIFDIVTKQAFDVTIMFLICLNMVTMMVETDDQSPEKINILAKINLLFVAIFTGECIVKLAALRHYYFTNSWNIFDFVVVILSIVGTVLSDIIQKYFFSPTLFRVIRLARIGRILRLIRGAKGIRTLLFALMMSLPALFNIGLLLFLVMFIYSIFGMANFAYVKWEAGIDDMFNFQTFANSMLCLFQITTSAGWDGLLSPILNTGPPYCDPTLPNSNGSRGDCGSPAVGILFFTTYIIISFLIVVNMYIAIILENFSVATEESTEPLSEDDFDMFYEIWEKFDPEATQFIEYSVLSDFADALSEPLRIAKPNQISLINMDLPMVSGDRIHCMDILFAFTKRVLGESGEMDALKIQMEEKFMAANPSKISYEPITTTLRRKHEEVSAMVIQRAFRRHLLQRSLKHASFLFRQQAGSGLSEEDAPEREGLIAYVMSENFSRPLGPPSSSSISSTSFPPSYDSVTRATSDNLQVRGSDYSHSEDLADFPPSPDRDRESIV

Sequence of HCN2 (Q9UL51 whole entry): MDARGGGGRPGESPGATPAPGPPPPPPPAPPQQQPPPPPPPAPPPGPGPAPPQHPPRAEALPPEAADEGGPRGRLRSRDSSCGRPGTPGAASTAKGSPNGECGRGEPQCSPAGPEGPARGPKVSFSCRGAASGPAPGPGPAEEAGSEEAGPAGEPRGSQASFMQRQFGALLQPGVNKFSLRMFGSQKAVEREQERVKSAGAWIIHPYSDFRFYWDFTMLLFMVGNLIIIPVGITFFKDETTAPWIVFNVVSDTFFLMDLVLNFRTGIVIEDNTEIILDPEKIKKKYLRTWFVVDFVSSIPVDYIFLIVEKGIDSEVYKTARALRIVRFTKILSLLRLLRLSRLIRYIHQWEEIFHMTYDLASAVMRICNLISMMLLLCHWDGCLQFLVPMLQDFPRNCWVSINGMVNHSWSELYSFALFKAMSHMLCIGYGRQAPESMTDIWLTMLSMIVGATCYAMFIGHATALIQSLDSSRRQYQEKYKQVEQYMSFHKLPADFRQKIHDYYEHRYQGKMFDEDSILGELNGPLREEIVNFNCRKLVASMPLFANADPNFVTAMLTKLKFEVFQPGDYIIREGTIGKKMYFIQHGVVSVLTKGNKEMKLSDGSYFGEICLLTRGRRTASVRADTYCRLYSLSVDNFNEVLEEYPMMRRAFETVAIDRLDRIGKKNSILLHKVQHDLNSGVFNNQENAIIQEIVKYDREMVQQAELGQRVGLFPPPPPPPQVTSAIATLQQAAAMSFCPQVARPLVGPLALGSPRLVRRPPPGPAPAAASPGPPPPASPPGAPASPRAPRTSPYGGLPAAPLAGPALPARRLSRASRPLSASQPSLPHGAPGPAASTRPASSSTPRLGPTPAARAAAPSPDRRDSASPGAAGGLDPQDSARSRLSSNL
Sequence of hERG channel (Q12809 whole entry): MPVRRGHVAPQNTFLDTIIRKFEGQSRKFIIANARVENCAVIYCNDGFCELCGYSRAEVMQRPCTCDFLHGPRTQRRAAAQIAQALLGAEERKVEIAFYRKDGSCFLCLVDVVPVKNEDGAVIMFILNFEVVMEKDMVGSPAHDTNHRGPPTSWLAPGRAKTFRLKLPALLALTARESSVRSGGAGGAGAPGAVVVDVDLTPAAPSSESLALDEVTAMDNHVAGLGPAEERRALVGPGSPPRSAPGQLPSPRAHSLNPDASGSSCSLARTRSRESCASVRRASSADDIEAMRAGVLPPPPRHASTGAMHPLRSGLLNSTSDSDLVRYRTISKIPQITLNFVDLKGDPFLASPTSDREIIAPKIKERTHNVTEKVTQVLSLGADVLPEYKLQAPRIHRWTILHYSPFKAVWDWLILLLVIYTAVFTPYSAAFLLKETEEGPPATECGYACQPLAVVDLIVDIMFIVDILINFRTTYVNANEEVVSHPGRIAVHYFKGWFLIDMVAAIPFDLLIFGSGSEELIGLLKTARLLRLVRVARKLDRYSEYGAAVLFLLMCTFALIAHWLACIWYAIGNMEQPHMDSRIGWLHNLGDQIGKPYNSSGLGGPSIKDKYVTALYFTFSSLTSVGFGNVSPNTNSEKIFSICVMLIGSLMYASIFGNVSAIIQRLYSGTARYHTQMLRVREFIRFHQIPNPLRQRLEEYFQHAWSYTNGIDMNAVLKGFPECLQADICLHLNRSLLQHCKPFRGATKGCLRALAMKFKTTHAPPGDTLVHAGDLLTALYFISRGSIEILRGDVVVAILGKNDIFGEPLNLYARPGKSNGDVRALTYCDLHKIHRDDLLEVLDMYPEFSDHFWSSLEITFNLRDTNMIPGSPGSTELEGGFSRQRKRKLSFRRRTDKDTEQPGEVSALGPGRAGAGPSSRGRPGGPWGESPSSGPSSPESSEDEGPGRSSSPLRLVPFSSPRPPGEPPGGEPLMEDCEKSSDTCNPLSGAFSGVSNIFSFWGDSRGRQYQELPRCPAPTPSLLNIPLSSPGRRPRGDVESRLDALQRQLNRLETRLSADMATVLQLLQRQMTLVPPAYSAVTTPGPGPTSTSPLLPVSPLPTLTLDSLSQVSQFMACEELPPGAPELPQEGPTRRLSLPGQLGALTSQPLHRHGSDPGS

IC50 (HCN2) [µM] | IC50 (HCN4) [µM] | SMILES | IC50 (hERG channel) [µM] | IC50 (hNav1.5) [µM]
2.9 | 7.1 | Cn1cc(-c2cccc(C[C@H](N)c3ccccc3-c3noc4ccccc34)n2)cn1 [Example 90, (S)-1-[2-(Benzo[d]isoxazol-3-yl)phenyl]-2-[6-(1-methyl-1H-pyrazol-4-yl)pyridine-2-yl]ethan-1-amine hydrochloride] | 4.1 | 10.6
1.7 | > 30 | Cc1ccc2c(-c3ccccc3[C@@H](N)Cc3ccccn3)noc2c1 [Example 33, (S)-1-[2-(6-Methylbenzo[d]isoxazol-3-yl)phenyl]-2-(pyridine-2-yl)ethan-1-amine] | 4.4 | 8.8
0.7 | 13.1 | CCc1cccc(C[C@H](N)c2ccccc2-c2noc3ccccc23)n1 [Example 101, (S)-1-[2-(Benzo[d]isoxazol-3-yl)phenyl]-2-(6-ethylpyridine-2-yl)ethan-1-amine hydrochloride] | 2.8 | 1.6
2.4 | > 30 | CN(C)C(=O)CCc1cccc(C[C@H](N)c2ccccc2-c2noc3ccccc23)n1 [Example 109, (S)-3-(6-{2-Amino-2-[2-(benzo[d]isoxazol-3-yl)phenyl]ethyl}pyridine-2-yl)-N,N-dimethylpropanamide hydrochloride] | 4.3 | 3.2
– | 8.3 | N[C@@H](Cc1nc(-c2cn[nH]c2)ccc1F)c1ccccc1-c1noc2ccccc12 [Example 78, (S)-1-[2-(Benzo[d]isoxazol-3-yl)phenyl]-2-[3-fluoro-6-(1H-pyrazol-4-yl)pyridin-2-yl)ethan-1-amine hydrochloride] | 7.6 | 6.4
0.6 | > 30 | Cc1cccnc1C[C@H](N)c1ccccc1-c1noc2ccccc12 [Example 47, (S)-1-[2-(Benzo[d]isoxazol-3-yl)phenyl]-2-(3-methylpyridine-2-yl)ethan-1-amine hydrochloride] | 2.8 | 5.8
8.5 | > 30 | N[C@@H](Cc1cccc(C(=O)N2CCOCC2)n1)c1ccccc1-c1noc2ccccc12 [Example 106, (S)-(6-{2-Amino-2-[2-(benzo[d]isoxazol-3-yl)phenyl]ethyl}pyridine-2-yl)(morpholino)methanone hydrochloride] | – | –
2.3 | > 30 | CC(c1ccccn1)C(N)c1ccccc1-c1noc2ccccc12 (single isomer, unassigned; diastereomer 3) [Example 3, 1-[2-(Benzo[d]isoxazol-3-yl)phenyl]-2-(pyridin-2-yl)propan-1-amine hydrochloride (diastereomer 3)] | – | –
15.6 | – | N[C@@H](Cc1ccccn1)c1ccccc1-c1noc2cc(CCO)ccc12 [Example 40, (S)-1-[2-(6-[2-Hydroxyethyl]benzo[d]isoxazol-3-yl)phenyl]-2-(pyridine-2-yl)ethan-1-amine] | 7.8 | > 33
0.96 | > 30 | CC(c1ccccn1)C(N)c1ccccc1-c1noc2ccccc12 (single isomer, unassigned; diastereomer 2) [Example 2, 1-[2-(Benzo[d]isoxazol-3-yl)phenyl]-2-(pyridin-2-yl)propan-1-amine hydrochloride (diastereomer 2)] | – | –
3 | 22.4 | CS(=O)(=O)c1cccc(C[C@H](N)c2ccccc2-c2noc3ccccc23)n1 [Example 103, (S)-1-[2-(Benzo[d]isoxazol-3-yl)phenyl]-2-[6-(methylsulfonyl)pyridin-2-yl]ethan-1-amine] | – | –
0.9 | 6.8 | Cc1cccc(C[C@H](N)c2ccccc2-c2nn(C(C)C)c3ccccc23)n1 [Example 66, (S)-1-[2-(1-Isopropyl-1H-indazole-3-yl)phenyl]-2-(6-methylpyridine-2-yl)ethan-1-amine hydrochloride] | – | –
9.5 | 28.1 | CNC(=O)Nc1cccc(C[C@H](N)c2ccccc2-c2noc3ccccc23)n1 [Example 122, (S)-1-(6-{2-Amino-2-[2-(benzo[d]isoxazol-3-yl)phenyl]ethyl}pyridine-2-yl)-3-methylurea hydrochloride] | – | –
2.9 | > 30 | Cc1cccc(C[C@H](N)c2ccccc2-c2noc3cc(C#N)ccc23)n1 [Example 96, (S)-1-[2-(6-Cyanobenzo[d]isoxazol-3-yl)phenyl]-2-(6-methylpyridine-2-yl)ethan-1-amine] | – | –
1.8 | > 30 | N[C@@H](Cc1ccccn1)c1cc(Br)ccc1-c1noc2ccccc12 [Example 83, (S)-1-[2-(benzo[d]isoxazol-3-yl)-5-bromophenyl]-2-(pyridine-2-yl)ethan-1-amine] | – | –
0.9 | 6.8 | Cc1ccc(C)c(C[C@H](N)c2ccccc2-c2noc3ccccc23)n1 [Example 59, (S)-1-[2-(benzo[d]isoxazol-3-yl)phenyl]-2(6-vinylpyridin-2-yl)ehtan-1-amine] | – | –
5.6 | 4.9 | N[C@@H](Cc1cccc(N2CC[C@@H](O)C2)n1)c1ccccc1-c1noc2ccccc12 [Example 50, (R)-1-(6-{(S)-2-Amino-2-[2-(benzo[d]isoxazol-3-yl)phenyl]ethyl}pyridine-2-yl)pyrrolidin-3-ol hydrochloride] | – | –
2 | 13.2 | N[C@@H](Cc1cccc(CO)n1)c1ccccc1-c1noc2ccccc12 [Example 98, (S)-1-[2-(Benzo[d]isoxazol-3-yl)phenyl]-2-(6-hydroxymethylpyridine-2-yl)ethan-1-amine hydrochloride] | – | –
0.5 | 7.2 | Cc1ccc(C#N)nc1C[C@H](N)c1ccccc1-c1noc2ccccc12 [Example 58, (S)-1-[2-(Benzo[d]isoxazol-3-yl)phenyl]-2-(6-cyano-3-methylpyridin-2-yl)ethan-1-amine] | – | –
2.6 | 15.1 | N#Cc1cccc(C[C@H](N)c2c(F)cccc2-c2noc3ccccc23)n1 [Example 110, (S)-6-{2-Amino-2-[2-(benzo[d]isoxazol-3-yl)-6-fluorophenyl]ethyl}-2-cyanopyridine hydrochloride] | – | > 33
3.5 | 5.1 | COCCNC(=O)c1cccc(C[C@H](N)c2ccccc2-c2noc3ccccc23)n1 [Example 108, (S)-6-{2-[Amino-2-(benzo[d]isoxazol-3-yl)phenyl]ethyl}-N-(2-methoxyethyl)pyridine-2-carboxamide hydrochloride] | – | –
0.6 | 2.4 | Cc1ccc(Br)nc1C[C@H](N)c1ccccc1-c1noc2ccccc12 [Example 57, (S)-1-[2-(Benzo[d]isoxazol-3-yl)phenyl]-2-(6-bromo-3-methylpyridin-2-yl)ethan-1-amine hydrochloride] | – | –
1.6 | 6.7 | C#Cc1ccc2c(-c3ccccc3[C@@H](N)Cc3ccccn3)noc2c1 [Example 31, (S)-1-[2-(6-Ethynylbenzo[d]isoxazol-3-yl)phenyl]-2-(pyridine-2-yl)ethan-1-amine hydrochloride] | – | –
0.8 | 2 | CN(CCO)c1cccc(C[C@H](N)c2ccccc2-c2noc3ccccc23)n1 [Example 55, (S)-2-[(6-{(S)-2-Amino-2-[2-(benzo[d]isoxazol-3-yl)phenyl]ethyl}pyridine-2-yl)(methyl)amino]ethan-1-ol hydrochloride] | – | –
1.4 | 3.2 | N[C@@H](Cc1cccc(C(=O)NCC2CC2)n1)c1ccccc1-c1noc2ccccc12 [Example 107, (S)-6-{2-Amino-2-[2-(benzo[d]isoxazol-3-yl)phenyl]ethyl}-N-(cyclopropylmethylpyridine-2-carboxamide hydrochloride] | – | –
1.7 | 3.4 | COCCN(C)c1cccc(C[C@H](N)c2ccccc2-c2noc3ccccc23)n1 [Example 51, (S)-6-{2-Amino-2-[2-(benzo[d]isoxazol-3-yl)phenyl]ethyl}-N-(2-methoxyethyl)-N-methyl pyridin-2-amine hydrochloride] | – | –
14.1 | > 30 | N[C@@H](Cc1cccc(C(O)CO)n1)c1ccccc1-c1noc2ccccc12 (stereo partly drawn) [Example 41, 1-(6-{(S)-2-Amino-2-[2-(benzo[d]isoxazol-3-yl)phenyl]ethyl}pyridine-2-yl)ethan-1,2-diol hydrochloride] | – | –

SMILES | IC50 (HCN2) [µM] | IC50 (HCN4) [µM] | IC50 (hERG channel) [µM] | IC50 (hNav1.5) [µM]
CNC(=O)c1cccc(C[C@H](N)c2ccccc2-c2noc3ccccc23)n1 [Example 105, (S)-6-{2-Amino-2-[2-(benzo[d]isoxazol-3-yl)phenyl]ethyl}-N-methylpyridine-2-carboxamide hydrochloride] | 4.2 | 6.2 | – | –
NC(=O)c1cccc(C[C@H](N)c2ccccc2-c2noc3ccccc23)n1 [Example 104, (S)-6-{2-Amino-2-[2-(benzo[d]isoxazol-3-yl)phenyl]ethyl}pyridine-2-carboxamide hydrochloride] | 2.6 | 10.4 | – | –
CC(C)n1nc(-c2ccccc2[C@@H](N)Cc2ccccn2)c2ccccc21 [Example 65, (S)-1-[2-(1-isopropyl-1H-indazole-3-yl)phenyl]-2-(pyridine-2-yl)ethan-1-amine hydrochloride] | 1.1 | 5.1 | – | –
